Laboratory results published in US12139492B2 (Endotarget Inc., priority 2021, dated 2024).

What was measured:
Mino cells = test: Antiproliferative effect, MTS cell viability assay, Mino cells; format: cell-based; details: Homo sapiens, MINO, Mino mantle cell lymphoma cells; read-out: IC50 (anti-proliferation) Mino cells
Summary of the method: (§1)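 MTS read-out, A490 of formazan from metabolically active cells; compound 0–10 μM (0, 0.001, 0.01, 0.1, 1, 10 μM), 72 h exposure.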

BTK [1] = biological target: T1, BTK (Homo sapiens, UniProt Q06187); test: Degradation of BTK protein in Namalwa cells (Western blot; DC50, Dmax); details: Namalwa B lymphocyte cells; 10^−6 M; Western blot
BTK [2] = biological target: T1, BTK; test: BTK degradation, DC50 and Dmax of Table 1 (cell line not given); format: cell-based; set-up: endogenous in cells; details: for DC50: concentration giving 50% reduction of BTK expression level
JeKo-1 cells = test: Antiproliferative effect, MTS cell viability assay, JeKo-1 cells; format: cell-based; details: Homo sapiens; JeKo-1 mantle cell lymphoma cells; read-out: IC50 (anti-proliferation) JeKO-1 cells
Summary of the method: as §1

T1 sequence (Q06187 whole entry): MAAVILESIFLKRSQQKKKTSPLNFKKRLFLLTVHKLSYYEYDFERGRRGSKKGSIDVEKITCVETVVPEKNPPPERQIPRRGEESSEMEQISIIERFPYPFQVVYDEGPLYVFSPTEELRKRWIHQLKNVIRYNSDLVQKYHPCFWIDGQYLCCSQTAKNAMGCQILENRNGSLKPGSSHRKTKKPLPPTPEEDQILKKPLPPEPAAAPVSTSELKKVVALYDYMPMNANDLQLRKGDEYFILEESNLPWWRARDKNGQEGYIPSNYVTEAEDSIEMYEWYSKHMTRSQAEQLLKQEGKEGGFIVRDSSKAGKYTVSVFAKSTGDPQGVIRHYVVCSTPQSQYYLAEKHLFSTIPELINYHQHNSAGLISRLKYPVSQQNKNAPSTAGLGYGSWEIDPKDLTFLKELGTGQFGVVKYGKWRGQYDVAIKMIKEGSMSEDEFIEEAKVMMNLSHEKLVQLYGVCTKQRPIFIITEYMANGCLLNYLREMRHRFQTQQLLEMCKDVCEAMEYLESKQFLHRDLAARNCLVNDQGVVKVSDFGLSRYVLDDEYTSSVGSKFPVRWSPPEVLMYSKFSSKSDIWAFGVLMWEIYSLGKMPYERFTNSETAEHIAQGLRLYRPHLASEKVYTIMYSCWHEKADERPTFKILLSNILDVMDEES

| degradation of BTK protein at 10^−6 M (BTK [1]) | Dmax (BTK [2]) | DC50 (BTK [2]) | SMILES | IC50 (Mino cells) | IC50 (JeKo-1 cells) |
| --- | --- | --- | --- | --- | --- |
| degradation | > 75% | > 0.05 µM | Nc1ncnc2c1c(-c1ccc(Oc3ccccc3)cc1)nn2[C@@H]1CCCN(CC2CCN(C(=O)N3CCN(c4ccc5c(c4)C(=O)N(C4CCC(=O)NC4=O)C5=O)CC3)CC2)C1 (stereo partly drawn) [Compound 25, 5-(4-(4-(((R)-3-(4-amino-3-(4-phenoxyphenyl)-1H-pyrazolo(3,4-d)pyrimidin-1-yl)piperidin-1-yl)methyl)piperidine-1-carbonyl)piperazin-1-yl)-2-(2,6-dioxopiperidin-3-yl)isoindoline-1,3-dione] | 1 to 10 µM | 1 to 10 µM |
| degradation | > 90% | > 0.05 µM | Nc1ncnc2c1c(-c1ccc(Oc3ccccc3)cc1)nn2[C@@H]1CCCN(CC2CCN(C(=O)N3CCC(C4CCN(c5ccc6c(c5)C(=O)N(C5CCC(=O)NC5=O)C6=O)CC4)CC3)CC2)C1 (stereo partly drawn) [Compound 29, 5-(1′-(4-(((R)-3-(4-amino-3-(4-phenoxyphenyl)-1H-pyrazolo(3,4-d)pyrimidin-1-yl)piperidin-1-yl)methyl)piperidine-1-carbonyl)-(4,4′-bipiperidin)-1-yl)-2-(2,6-dioxopiperidin-3-yl)isoindoline-1,3-dione] | 1 to 10 µM | 1 to 10 µM |
|  | > 75% | 0.01 to 0.05 µM | Nc1ncnc2c1c(-c1ccc(Oc3ccccc3)cc1)nn2[C@@H]1CCCN(C2CCN(C(=O)N3CCC(CCC4CCN(c5ccc6c(c5)C(=O)N(C5CCC(=O)NC5=O)C6=O)CC4)CC3)CC2)C1 (stereo partly drawn) [Compound 185, 5-(4-(2-(1-((R)-3-(4-amino-3-(4-phenoxyphenyl)-1H-pyrazolo[3,4-d]pyrimidin-1-yl)-[1,4′-bipiperidine]-1′-carbonyl)piperidin-4-yl)ethyl)piperidin-1-yl)-2-(2,6-dioxopiperidin-3-yl)isoindoline-1,3-dione] | > 10 µM | > 10 µM |
|  | > 75% | 0.01 to 0.05 µM | Nc1ncnc2c1c(-c1ccc(Oc3ccccc3)cc1)nn2[C@@H]1CCCN(C2CCN(C(=O)N3CCC(CCC4CCN(c5ccc6c(c5)CN(C5CCC(=O)NC5=O)C6=O)CC4)CC3)CC2)C1 (stereo partly drawn) [Compound 186, 3-(5-(4-(2-(1-((R)-3-(4-amino-3-(4-phenoxyphenyl)-1H-pyrazolo[3,4-d]pyrimidin-1-yl)-[1,4′-bipiperidine]-1′-carbonyl)piperidin-4-yl)ethyl)piperidin-1-yl)-1-oxoisoindolin-2-yl)piperidine-2,6-dione] | 1 to 10 µM | 1 to 10 µM |
|  | > 75% | > 0.05 µM | Nc1ncnc2c1c(-c1ccc(Oc3ccccc3)cc1)nn2[C@@H]1CCCN(C2CCN(C(=O)N3CCN(CCCN4CCN(c5ccc6c(c5)C(=O)N(C5CCC(=O)NC5=O)C6=O)CC4)CC3)CC2)C1 (stereo partly drawn) [Compound 187, 5-(4-(3-(4-((R)-3-(4-amino-3-(4-phenoxyphenyl)-1H-pyrazolo[3,4-d]pyrimidin-1-yl)-[1,4′-bipiperidine]-1′-carbonyl)piperazin-1-yl)propyl)piperazin-1-yl)-2-(2,6-dioxopiperidin-3-yl)isoindoline-1,3-dione] | 1 to 10 µM | 1 to 10 µM |
|  | > 75% | > 0.05 µM | Nc1ncnc2c1c(-c1ccc(Oc3ccccc3)cc1)nn2[C@@H]1CCCN(C2CCN(C(=O)N3CCN(CCCN4CCN(c5ccc6c(c5)CN(C5CCC(=O)NC5=O)C6=O)CC4)CC3)CC2)C1 (stereo partly drawn) [Compound 188, 3-(5-(4-(3-(4-((R)-3-(4-amino-3-(4-phenoxyphenyl)-1H-pyrazolo[3,4-d]pyrimidin-1-yl)-[1,4′-bipiperidine]-1′-carbonyl)piperazin-1-yl)propyl)piperazin-1-yl)-1-oxoisoindolin-2-yl)piperidine-2,6-dione] | 1 to 10 µM | 1 to 10 µM |
|  | > 75% | > 0.05 µM | Nc1ncnc2c1c(-c1ccc(Oc3ccccc3)cc1)nn2[C@@H]1CCCN(C2CCN(C(=O)N3CCN(CCCC4CCN(c5ccc6c(c5)C(=O)N(C5CCC(=O)NC5=O)C6=O)CC4)CC3)CC2)C1 (stereo partly drawn) [Compound 189, 5-(4-(3-(4-((R)-3-(4-amino-3-(4-phenoxyphenyl)-1H-pyrazolo[3,4-d]pyrimidin-1-yl)-[1,4′-bipiperidine]-1′-carbonyl)piperazin-1-yl)propyl)piperidin-1-yl)-2-(2,6-dioxopiperidin-3-yl)isoindoline-1,3-dione] | 1 to 10 µM | > 10 µM |
|  | > 50% | > 0.05 µM | Nc1ncnc2c1c(-c1ccc(Oc3ccccc3)cc1)nn2[C@@H]1CCCN(C2CCN(C(=O)N3CCN(CCCC4CCN(c5ccc6c(c5)CN(C5CCC(=O)NC5=O)C6=O)CC4)CC3)CC2)C1 (stereo partly drawn) [Compound 190, 3-(5-(4-(3-(4-((R)-3-(4-amino-3-(4-phenoxyphenyl)-1H-pyrazolo[3,4-d]pyrimidin-1-yl)-[1,4′-bipiperidine]-1′-carbonyl)piperazin-1-yl)propyl)piperidin-1-yl)-1-oxoisoindolin-2-yl)piperidine-2,6-dione] | > 10 µM | > 10 µM |
|  | > 75% | 0.01 to 0.05 µM | Nc1ncnc2c1c(-c1ccc(Oc3ccccc3)cc1)nn2[C@@H]1CCCN(C2CCN(C(=O)N3CCN(CCCN4CCC(c5ccc6c(c5)C(=O)N(C5CCC(=O)NC5=O)C6=O)CC4)CC3)CC2)C1 (stereo partly drawn) [Compound 191, 5-(1-(3-(4-((R)-3-(4-amino-3-(4-phenoxyphenyl)-1H-pyrazolo[3,4-d]pyrimidin-1-yl)-[1,4′-bipiperidine]-1′-carbonyl)piperazin-1-yl)propyl)piperidin-4-yl)-2-(2,6-dioxopiperidin-3-yl)isoindoline-1,3-dione] | > 10 µM | > 10 µM |
|  | > 75% | 0.01 to 0.05 µM | Nc1ncnc2c1c(-c1ccc(Oc3ccccc3)cc1)nn2[C@@H]1CCCN(C2CCN(C(=O)N3CCN(CCCN4CCC(c5ccc6c(c5)CN(C5CCC(=O)NC5=O)C6=O)CC4)CC3)CC2)C1 (stereo partly drawn) [Compound 192, 3-(5-(1-(3-(4-((R)-3-(4-amino-3-(4-phenoxyphenyl)-1H-pyrazolo[3,4-d]pyrimidin-1-yl)-[1,4′-bipiperidine]-1′-carbonyl)piperazin-1-yl)propyl)piperidin-4-yl)-1-oxoisoindolin-2-yl)piperidine-2,6-dione] | > 10 µM | > 10 µM |
|  | > 50% | 0.01 to 0.05 µM | Nc1ncnc2c1c(-c1ccc(Oc3ccccc3)cc1)nn2[C@@H]1CCCN(C2CCN(C(=O)N3CCC(CCCN4CCN(c5ccc6c(c5)C(=O)N(C5CCC(=O)NC5=O)C6=O)CC4)CC3)CC2)C1 (stereo partly drawn) [Compound 193, 5-(4-(3-(1-((R)-3-(4-amino-3-(4-phenoxyphenyl)-1H-pyrazolo[3,4-d]pyrimidin-1-yl)-[1,4′-bipiperidine]-1′-carbonyl)piperidin-4-yl)propyl)piperazin-1-yl)-2-(2,6-dioxopiperidin-3-yl)isoindoline-1,3-dione] | 1 to 10 µM | > 10 µM |
|  | > 75% | 0.01 to 0.05 µM | Nc1ncnc2c1c(-c1ccc(Oc3ccccc3)cc1)nn2[C@@H]1CCCN(C2CCN(C(=O)N3CCC(CCCN4CCN(c5ccc6c(c5)CN(C5CCC(=O)NC5=O)C6=O)CC4)CC3)CC2)C1 (stereo partly drawn) [Compound 194, 3-(5-(4-(3-(1-((R)-3-(4-amino-3-(4-phenoxyphenyl)-1H-pyrazolo[3,4-d]pyrimidin-1-yl)-[1,4′-bipiperidine]-1′-carbonyl)piperidin-4-yl)propyl)piperazin-1-yl)-1-oxoisoindolin-2-yl)piperidine-2,6-dione] | 1 to 10 µM | 1 to 10 µM |
